Values quoted from earlier work as cited in patent US20160310431A1, “Three-Phase System for Modified Release of a Non-Steroidal Antiinflammatory” (priority 2013, published 2016).
Like-named read-outs stand apart in the source and are kept apart here.

Key:
[1] = system: plasma proteins
[2] = system: COX-1 and COX-2; details: COX-1 vs COX-2
[3] = intramuscular administration
[4] = not given; remark: listed apart in the source
[5] = intramuscular administration, single dose of 30 mg

binding to plasma proteins [1] [%]	metabolized via the liver by conjugation (inactive metabolites) [%]	excreted as a conjugated metabolite (renal excretion) [%]	excreted as the drug without changes (renal excretion) [%]	excreted hydroxylated (renal excretion) [%]	maximum plasma concentration [4, 5] [µg/mL]	time at which maximum plasma concentration appears [4, 5] [min]	time at which maximum plasma concentration appears ([4]; intravenous administration) [min]	time at which maximum plasma concentration appears ([4]; oral administration, tablets or capsules) [min]	absorption ([4]; orally and parenterally)	SMILES	selectivity for COX isoforms [2]	appearance of analgesic effect [3]	duration of analgesic effect [3] [h]	peak of analgesic effect [3] [h]
99	21	21.9	60.2	11.5	–	–	–	–	–	O=C(c1ccccc1)c1ccc2n1CCC2C(=O)O (centres unmarked) [Ketorolac]	not being selective for any of the isoforms	–	–	–
–	–	–	–	–	2.2	50	5.4	180	rapidly and completely absorbed	O=C(c1ccccc1)c1ccc2n1CCC2C(=O)O (centres unmarked) [Ketorolac tromethamine]	–	first half hour	4 to 6	1 to 2
